Laboratory results reported in patent US10717090B2, “Depression of copper and iron sulfides in molybdenite flotation circuits” (TESSENDERLO KERLEY, INC., priority 2014, dated 2020).

Legend:
[1] = H2S evolution vs. pH in simulated flotation process (headspace analysis); type: physicochemical; settings: pH adjusted to between 9 and 9.5, ambient temperature
Experimental: The H2S evolution due to the decomposition of depressant reagents during storage, handling and application presents the highest associated hazard with regards to health and safety (HSE). Testing of TKI's Alkaline Polysulfide products against the standard (NaHS reagent) was conducted in a simulated flotation process using lab apparatus to determine the amount of H2S evolved at various pH's. The tests were conducted using the following testing protocol; • All tests were ran at ambient temperatures using tap water. Add 500 ml of tap water to […] glass apparatus, check pH and temp, start and maintain stirring throughout test. • Add Ca(OH)2 to raise pH to approximately 10.5 • Add 5 mL of reagent. • Allow to stabilize for 2 min, with cracking of stopper to equilibrate at 1 min. • Check pH, temperature and H2S in VP using analyzer. • Add H2SO4 to decrease pH to ˜9. • Allow to stabilize for 2 min, with cracking of stopper to equilibrate at 1 min. • Check pH, temperature and H2S in VP using analyzer. • Repeat last three Steps for pH 9, 8 and 7 if applicable.
Note the H2S in the vapor phase above the polysulfide samples increased to 1500 ppm at pH near 8.2, while this 1500 ppm level was reached by NaHS samples at pH 9.1 to 9.3. […] This would translate into a less hazardous environment in applications where the process is run ran at lower pH's (˜9) utilizing for example CO2 as a flotation medium or modifying agent.
Values above 1500 ppm are lower limits, as the H2S meter maximum reading was 2000 PPM. […] Therefore, this invention may show significant health and safety benefits even at pH near 8.

mammals = settings: cited from earlier work

| Compound | H2S in vapor phase [1] | LD50 (mammals) |
| --- | --- | --- |
| S [NaHS, Sodium hydrosulfide, reference compound] | 1500 ppm |  |
| Calcium Polysulfide [CaPS] | remained low | about 0.8 grams per kilogram of body weight |
| Potassium Polysulfide [KPS] | presumably KPS remained low |  |
| Sodium Polysulfide [NaPS] | remained low |  |
